According to patent US20180318291A1, “USE OF AMINOTHIAZOLE MYD88 SPECIFIC INHIBITOR TJM2010-5” (WUHAN INNAMUNE PHARMACEUTICAL INC. LTD., priority 2015, published 2018):

How the values were obtained:
[1] = tested on: C57bl/6 mice lymphocytes with Bal b/c DC; test: mixed lymphocyte culture, T cell proliferation after CpG stimulated DC activation; type: cell-based; details: 10, 20, 40 μM, third day, FIG. 8
Procedure: 1. Take the thigh bone of Bal b/c mice, separate the bone marrow cell and add the GMS-CSF and IL-4 cytokines to cultivate marrow-derived DC.
2. Cultivate them until the sixth day, and dissociate the cells to remove immature DC. Conduct centrifugation and suspend them with 1640 medium.
3. Add mitomycin (to let the final concentration up to 50 μg/ml), and conduct water bath at 37° C. for 15 min Wash in 1640 medium and count.
4. Take the spleen of C57bl/6 mice, separate splenic lymphocytes with separating medium of mice lymphocytes and count.
5. Take the splenic lymphocytes of C57bl/6 mice and label CFSE.
6. Mix DC derived from Bal b/c and C57bl/6 mice lymphocytes for the mixed lymphocyte culture. And the grouped as follows:
Control group: Add CPG other than TJM2010-5 in the process of mixed lymphocyte culture.
Experiment group 1: Add CPG and TJM2010-5 in the process of mixed lymphocyte culture, where, the added TJM2010-5 is 10 μM.
Experiment group 2: Add CPG and TJM2010-5 in the process of mixed lymphocyte culture, where, the added TJM2010-5 is 20 μM.
Experiment group 3: Add CPG and TJM2010-5 in the process of mixed lymphocyte culture, where, the added TJM2010-5 is 40 μM.
1. Cultivate them until the third day, collect cells and detect the proliferation of C57bl/6 mice lymphopoiesis with flow cytometer.

NOD mice = test: diabetes mellitus type I model in NOD mice; type: in vivo; details: 150 mg/kg/d intraperitoneal, observed 30 weeks, FIG. 4
Procedure: 1. Experimental groups: MyD88KO NOD mice, MyD88KO/+NOD mice, NOD mice TJM2010-5 treatment group.
2. Treatment group: Provide intraperitoneal injection of TJM2010-5 dissolved in 0.5% CMC of 150 mg/kg/d on the day before antigen injection, and on day 0 to day 3, and day 5, 7, 9, 11, 13 and 15 day after injection.
3. Provide intraperitoneal injection of mycobacterium antigen to mice in each group and monitor the concentration constantly.
4. Feed in clean level and observe for 30 weeks, and take the tail venous blood to test the non-fasting blood-glucose. The standard for diabetes modeling is obtaining the blood-glucose no less than 22 mmol/L for 2 times successively.

GVHD mice = test: GVHD model in irradiated BALB/c mice; type: in vivo
Procedure: Construction of GVHD model: Apply myeloablativetotal body irradiation (TBI, 710cGy) (HI-ENERGY PRIMV S-M X-ray source) on female BALB/c (H-2d) mice, and inject the bone marrow cell of […] of C57BL/6(B6, H-2^b) mice into it within 2 hours, and inject the B6spleen cells of […] into some of these female BALB/c (H-2d) mice at some time.
Groups: GVHD mice are divided into 4 groups, where the first group is control group, and the 8 mice in the group are provided with no post operation treatment; the second group is provided with intragastric administration of TJM2010-5 of 50 mg/kg/day since the day of irradiation; the third group is the MR1 group, in which the 8 mice are provided with the treatment of MR1 of 10 mg/kg/time on day 0, 1, 2, 3, 7 and 14 after irradiation; the forth group is the combination treatment group (TJM2010-5+MR1), in which the 8 mice are treated with TJM2010-5 and MR1 by the method mentioned above.
In case TJM2010-5 is combined with MR1, it can reverse 100% of GVHD. However, other aminothiazole compounds have no or little such curative effect.

[2] = tested on: skin of Balb/c mice transplanted to C57bl/6 mice; test: mice skin transplantation model (graft survival, tolerance); type: in vivo; details: Balb/c skin to C57bl/6; TJM2010-5 150 mg/kg/d ip, MR1 200 μg/d ip
Description: 2) Application of TJM2010-5 combined with costimulatory molecules inhibitor-anti-CD154 monoclonal antibody (MR1) in mice skin transplantation model
Five groups are set in the experiment, which are: allogeneic skin grafting control group (the rejection time reported in literature is 8-10 days), TJM2010-5 group, MR1 group and combination treatment group (TJM2010-5+MR1).
The specific handling methods as follows:
Allogeneic skin grafting CMC control group: take and transplant the skin of Balb/c mice to the back of C57bl/6 mice, and provide intraperitoneal injection of 0.5% CMC on day 0 to day 3, and day 5, 7, 9, 11, 13, 15 after the operation, the does is 200 μl/day; in the homogenic skin transplantation group: take and transplant the […] of C57bl/6 mice to the back of C57bl/6 mice, and no special treatment is provided after operation.
The TJM2010-5 Group: take and transplant the skin of Balb/c mice to the back of C57bl/6 mice, and provide intraperitoneal injection of the TJM2010-5 dissolved in 0.5% CMC on day 0 to day 3, and day 5, 7, 9, 11, 13, 15 after the operation, the does is 150 mg/kg/d;
The MR1 Group: take and transplant the skin of Balb/c mice to the back of C57bl/6 mice, and provide intraperitoneal injection of MR 1 on day 0, 1, 3, 7, 14 after the operation, the does is of 200 μg/d; […]

**Q.** For `O=C(CCN1CCN(Cc2ccccc2)CC1)Nc1nc(-c2ccccc2)cs1` [TJM2010-5, 3-(4-benzylpiperazin-1-yl)-N-(4-phenylthiazol-2-yl) propanamide], which “proliferation in T cells with increasing TJM2010-5” value [1] is on record?
**A.** The value was “reduces”.

**Q.** And the “incidence rate of diabetes mellitus type I” value (NOD mice)?
**A.** The value was “equivalent to that of MyD88KO homozygote group”.

**Q.** What about the “weight vs control group” value (GVHD mice; 50 mg/kg/day intragastric since day of irradiation, FIG. 2a-A) of the same compound?
**A.** Its value is “higher than that of control group”.

**Q.** What about the “GVHD level vs control group” value (GVHD mice; 50 mg/kg/day intragastric, FIG. 2a-B) of the same compound?
**A.** Its value is “significantly lower than that of control group”.

**Q.** What about the “survival rate vs control group” value (GVHD mice; 50 mg/kg/day intragastric, FIG. 2a-C) of the same compound?
**A.** The value was “significantly higher than that of control group”.

**Q.** And the “general performances of mice” value (GVHD mice; FIG. 2c)?
**A.** The value was “close to normal mice”.

**Q.** What about the GVHD reversed (GVHD mice; TJM2010-5 alone or combined with MR1) of the same compound?
**A.** The GVHD reversed was 70%.

**Q.** What about the “survival rates of the mice after 60 days” value (GVHD mice; each TJM2010 compound combined with MR1, 50 mg/kg/day intragastric, 8 mice per group) of the same compound?
**A.** Its value is 100%.

**Q.** And the “effect on tolerance induction of the skin graft” value [2]?
**A.** The value was “no obvious effect”.
